ChEMBL document CHEMBL1152560, “Substituted 2-arylbenzothiazoles as kinase inhibitors: hit-to-lead optimization” (Bioorg Med Chem, 2009)

Key:
[1] = molecular target: T1, Serine/threonine-protein kinase 4 (Homo sapiens) (UniProt Q13043); test: Residual activity of MST1 at 10 uM by microplate scintillation counting
T1 sequence (whole entry): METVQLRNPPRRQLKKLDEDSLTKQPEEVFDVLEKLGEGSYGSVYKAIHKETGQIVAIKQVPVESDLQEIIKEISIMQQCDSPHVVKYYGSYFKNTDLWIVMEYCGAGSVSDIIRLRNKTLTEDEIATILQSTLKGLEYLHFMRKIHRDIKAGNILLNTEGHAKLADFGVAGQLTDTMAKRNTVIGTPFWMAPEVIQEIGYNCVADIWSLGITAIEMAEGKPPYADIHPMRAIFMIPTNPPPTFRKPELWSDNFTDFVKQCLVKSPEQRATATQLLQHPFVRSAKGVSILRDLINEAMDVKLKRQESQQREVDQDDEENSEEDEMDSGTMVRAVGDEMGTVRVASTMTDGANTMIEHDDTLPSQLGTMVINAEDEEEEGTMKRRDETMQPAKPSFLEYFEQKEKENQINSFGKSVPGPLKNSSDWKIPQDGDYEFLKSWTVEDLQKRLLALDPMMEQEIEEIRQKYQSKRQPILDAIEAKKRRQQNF

[2] = molecular target: Vascular endothelial growth factor receptor 2 (Homo sapiens, UniProt P35968); test: Residual activity of VEGFR2 at 1 uM by microplate scintillation counting
[3] = molecular target: Insulin receptor-related protein (Homo sapiens) (UniProt P14616); test: Residual activity of INSRR at 1 uM by microplate scintillation counting
Chain of Insulin receptor-related protein (Homo sapiens) (P14616 27-742 limits assumed): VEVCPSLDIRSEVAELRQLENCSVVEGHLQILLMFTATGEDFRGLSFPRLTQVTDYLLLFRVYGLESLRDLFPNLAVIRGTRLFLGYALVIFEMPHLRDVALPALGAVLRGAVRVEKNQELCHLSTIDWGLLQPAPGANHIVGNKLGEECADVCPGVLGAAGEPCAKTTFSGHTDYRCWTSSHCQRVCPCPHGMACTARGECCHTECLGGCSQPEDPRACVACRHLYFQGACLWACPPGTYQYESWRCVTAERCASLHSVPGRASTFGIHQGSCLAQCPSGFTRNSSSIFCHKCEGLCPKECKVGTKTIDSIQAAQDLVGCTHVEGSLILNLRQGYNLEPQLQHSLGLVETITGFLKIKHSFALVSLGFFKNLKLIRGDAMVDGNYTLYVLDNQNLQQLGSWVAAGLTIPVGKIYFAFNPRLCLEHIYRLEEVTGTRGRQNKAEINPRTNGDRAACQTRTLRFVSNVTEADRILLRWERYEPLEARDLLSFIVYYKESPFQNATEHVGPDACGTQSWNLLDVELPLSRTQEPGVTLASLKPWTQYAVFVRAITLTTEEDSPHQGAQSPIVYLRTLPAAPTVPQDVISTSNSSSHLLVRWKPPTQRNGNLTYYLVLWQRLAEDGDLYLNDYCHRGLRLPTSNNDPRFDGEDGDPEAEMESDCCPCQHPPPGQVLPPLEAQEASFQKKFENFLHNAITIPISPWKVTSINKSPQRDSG
Chain of Insulin receptor-related protein (Homo sapiens) (P14616 747-1297 limits assumed): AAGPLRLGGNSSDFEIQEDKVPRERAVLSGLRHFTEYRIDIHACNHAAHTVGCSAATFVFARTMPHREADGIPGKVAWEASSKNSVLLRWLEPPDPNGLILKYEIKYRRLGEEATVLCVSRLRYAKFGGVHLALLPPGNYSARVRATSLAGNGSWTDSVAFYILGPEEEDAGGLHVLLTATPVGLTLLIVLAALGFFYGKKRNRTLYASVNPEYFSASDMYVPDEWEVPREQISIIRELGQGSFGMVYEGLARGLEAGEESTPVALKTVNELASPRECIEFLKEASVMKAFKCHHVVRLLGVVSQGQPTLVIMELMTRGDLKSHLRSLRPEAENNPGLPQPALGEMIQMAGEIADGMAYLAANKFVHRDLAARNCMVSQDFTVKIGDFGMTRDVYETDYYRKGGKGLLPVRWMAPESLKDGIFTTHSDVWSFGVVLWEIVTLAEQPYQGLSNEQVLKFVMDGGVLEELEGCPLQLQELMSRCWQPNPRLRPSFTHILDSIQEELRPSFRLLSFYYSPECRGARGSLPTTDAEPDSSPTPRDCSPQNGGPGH

[4] = molecular target: T2, Serine/threonine-protein kinase BRSK1 (Homo sapiens) (UniProt Q8TDC3); test: Residual activity of BRSK1 at 0.1 uM by microplate scintillation counting
T2 sequence (whole entry): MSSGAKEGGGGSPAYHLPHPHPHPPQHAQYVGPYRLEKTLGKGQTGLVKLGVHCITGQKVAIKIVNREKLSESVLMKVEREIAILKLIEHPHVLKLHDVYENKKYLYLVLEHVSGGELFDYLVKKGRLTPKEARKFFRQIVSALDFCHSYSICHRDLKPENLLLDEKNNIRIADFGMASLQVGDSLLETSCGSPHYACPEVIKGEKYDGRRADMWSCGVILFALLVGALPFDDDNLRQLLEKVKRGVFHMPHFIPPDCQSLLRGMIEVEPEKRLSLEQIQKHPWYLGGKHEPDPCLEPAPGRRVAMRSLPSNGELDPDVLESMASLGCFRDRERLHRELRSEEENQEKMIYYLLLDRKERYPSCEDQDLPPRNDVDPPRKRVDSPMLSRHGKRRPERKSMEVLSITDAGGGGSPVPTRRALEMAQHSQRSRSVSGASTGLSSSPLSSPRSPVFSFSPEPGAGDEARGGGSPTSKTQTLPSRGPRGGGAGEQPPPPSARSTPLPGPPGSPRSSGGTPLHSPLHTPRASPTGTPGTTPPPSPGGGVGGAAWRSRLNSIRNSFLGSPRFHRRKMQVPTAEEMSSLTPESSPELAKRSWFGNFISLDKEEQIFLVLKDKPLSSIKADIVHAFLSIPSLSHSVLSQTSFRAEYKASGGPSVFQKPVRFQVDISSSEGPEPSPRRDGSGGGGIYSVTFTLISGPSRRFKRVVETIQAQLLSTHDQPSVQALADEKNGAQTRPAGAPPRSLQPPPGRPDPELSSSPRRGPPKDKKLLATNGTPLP

[5] = molecular target: Ribosomal protein S6 kinase alpha-2 (Homo sapiens) (UniProt Q15349); test: Residual activity of RPS6KA2 at 0.1 uM by microplate scintillation counting
Chain of Ribosomal protein S6 kinase alpha-2 (Homo sapiens) (Q15349 whole entry): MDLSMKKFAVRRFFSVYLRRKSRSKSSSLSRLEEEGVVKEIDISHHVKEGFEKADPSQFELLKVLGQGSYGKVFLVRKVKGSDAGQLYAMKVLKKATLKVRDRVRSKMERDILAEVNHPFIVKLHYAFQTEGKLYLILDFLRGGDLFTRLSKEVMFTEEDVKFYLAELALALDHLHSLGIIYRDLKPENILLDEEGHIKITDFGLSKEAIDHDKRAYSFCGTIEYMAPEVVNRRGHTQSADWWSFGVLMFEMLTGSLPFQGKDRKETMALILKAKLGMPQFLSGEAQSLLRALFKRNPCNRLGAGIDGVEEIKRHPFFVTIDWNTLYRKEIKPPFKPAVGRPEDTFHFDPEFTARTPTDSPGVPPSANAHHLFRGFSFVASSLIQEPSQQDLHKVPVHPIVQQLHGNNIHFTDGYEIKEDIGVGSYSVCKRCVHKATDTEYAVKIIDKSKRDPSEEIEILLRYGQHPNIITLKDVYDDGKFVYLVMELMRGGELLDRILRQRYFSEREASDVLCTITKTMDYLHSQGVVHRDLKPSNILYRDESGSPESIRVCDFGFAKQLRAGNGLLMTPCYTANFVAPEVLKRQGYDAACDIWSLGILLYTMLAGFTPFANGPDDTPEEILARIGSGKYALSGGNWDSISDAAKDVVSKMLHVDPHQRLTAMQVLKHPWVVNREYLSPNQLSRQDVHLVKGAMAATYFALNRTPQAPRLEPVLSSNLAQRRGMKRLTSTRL

[6] = molecular target: Mitogen-activated protein kinase kinase kinase 8 (Homo sapiens) (UniProt P41279); test: Residual activity of COT at 10 uM by microplate scintillation counting
Chain of Mitogen-activated protein kinase kinase kinase 8 (Homo sapiens) (P41279 whole entry): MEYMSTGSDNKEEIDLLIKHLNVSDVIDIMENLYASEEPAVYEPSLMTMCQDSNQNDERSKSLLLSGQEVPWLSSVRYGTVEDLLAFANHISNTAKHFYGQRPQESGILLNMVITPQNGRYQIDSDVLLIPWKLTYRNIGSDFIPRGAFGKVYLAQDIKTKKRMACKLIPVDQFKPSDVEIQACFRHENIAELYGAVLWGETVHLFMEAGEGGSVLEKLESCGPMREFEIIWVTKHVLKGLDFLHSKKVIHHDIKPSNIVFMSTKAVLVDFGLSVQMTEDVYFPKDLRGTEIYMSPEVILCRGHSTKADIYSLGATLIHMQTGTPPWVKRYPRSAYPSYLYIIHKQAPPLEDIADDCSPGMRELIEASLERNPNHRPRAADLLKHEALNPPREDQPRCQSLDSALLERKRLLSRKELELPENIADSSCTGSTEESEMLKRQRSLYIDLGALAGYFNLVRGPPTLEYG

[7] = tested on: Epidermal growth factor receptor (Homo sapiens), P00533 [L858R,T790M]; test: Residual activity of EGFR T790M/L858R mutant at 10 uM by microplate scintillation counting
[8] = molecular target: Mitogen-activated protein kinase 10 (Homo sapiens) (UniProt P53779); test: Residual activity of JNK3 at 1 uM by microplate scintillation counting
Chain of Mitogen-activated protein kinase 10 (Homo sapiens) (P53779 whole entry): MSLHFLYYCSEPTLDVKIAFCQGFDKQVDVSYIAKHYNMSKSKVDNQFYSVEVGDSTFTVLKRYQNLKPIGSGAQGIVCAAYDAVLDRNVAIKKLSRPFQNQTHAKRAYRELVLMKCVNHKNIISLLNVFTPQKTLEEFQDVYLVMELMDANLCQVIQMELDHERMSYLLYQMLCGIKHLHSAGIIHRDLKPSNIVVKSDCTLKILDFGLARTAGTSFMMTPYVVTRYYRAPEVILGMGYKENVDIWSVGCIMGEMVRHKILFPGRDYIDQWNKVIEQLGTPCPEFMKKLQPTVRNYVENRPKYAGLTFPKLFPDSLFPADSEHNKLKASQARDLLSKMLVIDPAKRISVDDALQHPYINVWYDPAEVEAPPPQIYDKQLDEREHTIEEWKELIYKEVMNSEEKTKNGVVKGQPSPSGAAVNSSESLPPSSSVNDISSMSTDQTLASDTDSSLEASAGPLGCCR

[9] = molecular target: ALK tyrosine kinase receptor (Homo sapiens) (UniProt Q9UM73); test: Residual activity of ALK at 1 uM by microplate scintillation counting
[10] = molecular target: T3, Tyrosine-protein kinase Tec (Homo sapiens) (UniProt P42680); test: Residual activity of TEC at 10 uM by microplate scintillation counting
T3 sequence (whole entry): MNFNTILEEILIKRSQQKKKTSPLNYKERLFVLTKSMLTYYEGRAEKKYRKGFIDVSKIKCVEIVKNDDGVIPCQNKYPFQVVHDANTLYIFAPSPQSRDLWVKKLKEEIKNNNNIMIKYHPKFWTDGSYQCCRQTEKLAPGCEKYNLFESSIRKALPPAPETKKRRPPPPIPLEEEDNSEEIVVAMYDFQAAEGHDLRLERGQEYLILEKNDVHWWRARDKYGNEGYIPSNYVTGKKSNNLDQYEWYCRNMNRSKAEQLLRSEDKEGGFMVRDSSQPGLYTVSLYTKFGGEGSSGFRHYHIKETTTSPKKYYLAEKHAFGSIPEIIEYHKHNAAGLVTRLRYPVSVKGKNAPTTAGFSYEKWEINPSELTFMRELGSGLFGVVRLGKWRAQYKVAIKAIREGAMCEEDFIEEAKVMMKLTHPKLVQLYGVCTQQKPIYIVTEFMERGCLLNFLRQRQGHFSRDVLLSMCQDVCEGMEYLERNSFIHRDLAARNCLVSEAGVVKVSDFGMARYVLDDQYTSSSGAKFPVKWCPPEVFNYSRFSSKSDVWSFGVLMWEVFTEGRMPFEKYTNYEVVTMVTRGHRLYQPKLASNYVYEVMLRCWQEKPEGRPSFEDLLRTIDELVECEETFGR

[11] = molecular target: Fibroblast growth factor receptor 3 (Homo sapiens) (UniProt P22607); test: Residual activity of FGFR3 at 1 uM by microplate scintillation counting
Chain of Fibroblast growth factor receptor 3 (Homo sapiens) (P22607 23-806 limits assumed): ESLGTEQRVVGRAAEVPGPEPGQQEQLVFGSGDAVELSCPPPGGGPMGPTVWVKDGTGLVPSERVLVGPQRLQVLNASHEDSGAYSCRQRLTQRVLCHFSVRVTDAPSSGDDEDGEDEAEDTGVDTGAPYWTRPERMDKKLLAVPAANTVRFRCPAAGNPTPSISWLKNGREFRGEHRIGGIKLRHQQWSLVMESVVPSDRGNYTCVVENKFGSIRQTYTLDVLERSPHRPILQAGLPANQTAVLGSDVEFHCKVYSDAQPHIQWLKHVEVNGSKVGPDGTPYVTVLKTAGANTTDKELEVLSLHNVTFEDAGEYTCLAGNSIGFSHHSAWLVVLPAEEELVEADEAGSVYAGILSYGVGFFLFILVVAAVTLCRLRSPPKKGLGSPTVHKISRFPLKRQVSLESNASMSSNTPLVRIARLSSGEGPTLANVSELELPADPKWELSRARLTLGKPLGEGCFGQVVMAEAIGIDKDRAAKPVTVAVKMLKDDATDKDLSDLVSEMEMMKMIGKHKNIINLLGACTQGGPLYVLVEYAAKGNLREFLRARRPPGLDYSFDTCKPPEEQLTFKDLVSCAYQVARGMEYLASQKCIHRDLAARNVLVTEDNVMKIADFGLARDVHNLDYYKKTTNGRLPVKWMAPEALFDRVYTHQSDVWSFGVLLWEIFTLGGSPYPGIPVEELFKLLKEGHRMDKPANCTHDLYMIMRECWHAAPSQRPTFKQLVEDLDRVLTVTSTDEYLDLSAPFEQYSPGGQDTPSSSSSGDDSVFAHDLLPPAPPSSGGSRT

[12] = molecular target: Platelet-derived growth factor receptor beta (Homo sapiens, UniProt P09619); test: Residual activity of PDGFRbeta at 1 uM by microplate scintillation counting
Chain of Platelet-derived growth factor receptor beta (P09619 whole entry): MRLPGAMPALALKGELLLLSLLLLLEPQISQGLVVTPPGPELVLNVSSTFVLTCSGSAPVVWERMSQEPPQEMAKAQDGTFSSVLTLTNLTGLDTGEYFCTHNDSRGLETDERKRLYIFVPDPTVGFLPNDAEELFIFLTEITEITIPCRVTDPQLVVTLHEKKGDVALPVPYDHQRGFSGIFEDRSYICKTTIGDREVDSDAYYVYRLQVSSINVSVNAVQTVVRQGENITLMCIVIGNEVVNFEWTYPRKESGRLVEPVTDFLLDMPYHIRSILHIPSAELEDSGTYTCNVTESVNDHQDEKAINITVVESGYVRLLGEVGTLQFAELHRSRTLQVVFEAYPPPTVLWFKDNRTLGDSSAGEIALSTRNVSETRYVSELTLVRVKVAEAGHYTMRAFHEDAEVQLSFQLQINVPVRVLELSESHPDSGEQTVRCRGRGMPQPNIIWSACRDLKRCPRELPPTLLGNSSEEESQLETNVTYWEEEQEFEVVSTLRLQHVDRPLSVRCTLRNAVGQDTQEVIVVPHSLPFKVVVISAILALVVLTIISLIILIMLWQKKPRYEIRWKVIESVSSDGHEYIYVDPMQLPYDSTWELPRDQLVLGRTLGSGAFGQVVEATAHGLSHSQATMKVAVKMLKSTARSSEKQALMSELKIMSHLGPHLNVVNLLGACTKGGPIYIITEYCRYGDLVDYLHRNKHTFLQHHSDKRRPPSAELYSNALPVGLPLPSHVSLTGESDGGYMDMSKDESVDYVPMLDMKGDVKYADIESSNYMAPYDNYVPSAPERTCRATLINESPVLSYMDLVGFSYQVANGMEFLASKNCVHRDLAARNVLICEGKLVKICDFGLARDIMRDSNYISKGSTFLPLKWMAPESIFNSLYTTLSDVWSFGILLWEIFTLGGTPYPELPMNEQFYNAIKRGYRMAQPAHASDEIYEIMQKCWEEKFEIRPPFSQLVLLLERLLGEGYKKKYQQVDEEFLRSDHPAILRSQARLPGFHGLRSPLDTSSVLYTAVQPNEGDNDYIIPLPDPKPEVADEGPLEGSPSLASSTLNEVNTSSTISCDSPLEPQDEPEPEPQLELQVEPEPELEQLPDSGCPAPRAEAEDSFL

[13] = molecular target: Rho-associated protein kinase 1 (Homo sapiens) (UniProt Q13464); test: Residual activity of ROCK1 at 10 uM by microplate scintillation counting

Row | SMILES | residual activity [1] [%] | residual activity [2] [%] | residual activity [3] [%] | residual activity [4] [%] | residual activity [5] [%] | residual activity [6] [%] | residual activity [7] [%] | residual activity [8] [%] | residual activity [9] [%] | residual activity [10] [%] | residual activity [11] [%] | residual activity [12] [%] | residual activity [13] [%]
1 | COc1cc2c(Oc3ccc(-c4nc5ccccc5s4)cc3)ncnc2cc1OCCCN1CCN(C)CC1 | 23 | 40 | 105 | 95 | 90 | 115 | 167 | 106 | 171 | 61 | 90 | 78 | 68
2 | COc1cc2c(Oc3ccc(-c4nc5ccccc5s4)cc3F)ncnc2cc1OCCCN1CCN(C)CC1 | 26 | 53 | 73 | 85 | 91 | 94 | 70 | 101 | 178 | 25 | 88 | 88 | 73
3 | COc1cc2c(Oc3ccc(-c4nc5ccccc5s4)cc3)ncnc2cc1OCCCN1CCCC1 | 30 | 49 | 96 | 94 | 92 | 96 | 147 | 97 | 169 | 45 | 98 | 78 | 81
